Measured values published in patent US20240009272A1, “METHODS, SYSTEMS, AND COMPOSITIONS FOR LEGUME-BASED PRODUCTION OF THERAPEUTIC PROTEINS AND THERAPEUTIC MEDICAL MATERIALS” (Arizona Board of Regents on Behalf of The University of …, priority 2017, published 2024).

Assay: Stability of rhEGF in soymilk, read out by bioactivity on Hela cell EGFR
Assay type: physicochemical
Settings: in soymilk over 24 hours; Hela cell EGFR abundance
Method: Hela cells (obtained from American Tissue Culture Collection) were cultured in Minimum Essential Media (MEM) complemented with 10% Fetal Bovine Serum (FBS), 100 units/ml penicillin, and 100 μg/ml streptomycin. For the western blotting assay, cells grown in a 6-well plate were kept in serum-free MEM media for 24 hours. Cells were then either kept in a serum-free medium (control) or stimulated with soy milk alone, soy EGF, or commercial recombinant human EGF for different time periods as indicated. Cells were lysed by directly adding 1×SDS sample buffer (50 mM Tris-HCl, pH 6.8, 10% glycerol, 2% SDS, and 5% β-ME) to the cells after washing 3 times with 1×PBS. EGF bio-activity was determined via EGFR phosphorylation and downstream AKT phosphorylation. Total EGFR was also measured since EGFR is known to undergo internalization when stimulated with EGF. Antibodies used in western blot are anti-p-EGFR (Tyr1068) (#2234, Cell Signaling Technology), anti-total EGFR (#06-847, Millipore), anti-p-AKT (#4060, Cell Signaling Technology) and anti-Lamin B1 (#13435, Cell Signaling Technology). […] EGFR was labeled using an anti-EGFR antibody (#4267, Cell Signaling Technology) and detected with Alexa Fluor 594 Goat anti-rabbit IgG (#A11012, Life Technologies). […]

With “rhEGF: commercial recombinant human EGF (Gibco, Life Technologies), used as positive control” the “bioactivity of rhEGF kept in soymilk versus control rhEGF” value was “same bioactivity as control recombinant rhEGF”.
